Data reported in patent US10723708B2, “Anti-HCMV compositions and methods” (FORGE Life Science, LLC, priority 2014, dated 2020).

These molecules were tested on human cytomegalovirus (HCMV) (assay: Antiviral activity against HCMV, virus yield/replication assay in MRC5 cells). Conditions: Human betaherpesvirus 5; infected human MRC5 cells; virus yield in supernatant at 96 hours / four days, read by IE protein expression in fresh MRC5 cells.
Format: cell-based
Experimental: Assessing Antiviral Activity Against Human Cytomegalovirus (HCMV)
To assess their antiviral activity, some compounds were tested against human cytomegalovirus (HCMV) in vitro. Human MRC5 cells were grown in Dulbecco's Modified Eagle Medium (DMEM) supplemented with 10% fetal bovine serum (FBS) and infected with an HCMV variant expressing GFP tagged pUL99 (the product of late viral UL99 gene) at a multiplicity of 1 infectious unit (IU) per cell. One hour later, medium of the cells was replaced with fresh medium containing the indicated compounds at 50, 25, 12.5, 6.25, 3.13, 1.56, 0.78, 0.39 μM or the carrier in which the compounds are dissolved (DMSO). Final concentration of DMSO was 0.5% in each treatment. Virus yield in the culture supernatant was determined at 96 hours after infection by infecting fresh MRC5 cells and assaying viral IE1 protein expression. Results were plotted using either Prism Software or CDD Vault (CDD Vault was developed by Collaborative Drug Discovery, Inc., 1633 Bayshore Hwy, Suite 342, Burlingame, Calif. 94010) in order to calculate IC50s.
Alternatively, antiviral efficacy of some compounds was assessed by inhibition of HCMV replication during in vitro replication assays. Briefly, confluent monolayers of MRC5 fibroblasts in a 96 well plate format (˜1.0×10^4 cells/well) were infected with an AD169 strain of HCMV for one hour. After the initial incubation hour, virus containing media was removed and 100 ul of media with sequential dilutions of FORGE compounds added to each well. The concentrations of the FORGE compounds were 50 μM, 25 μM, […], 6.25 μM, 3.125 μM, 1.56 μM, and 0.78125 μM as well as a vehicle control (0.5% DMSO). The concentration of DMSO was constant between all conditions. Assays were performed in duplicate. Infected plates were returned to the incubator and the viral infection was allowed to progress for four days. On the fourth day, 50 μL of cell free supernatant was collected from each well and used to infect a new 96 well plate seeded with a confluent monolayer of MRC5 fibroblasts along with 50 μL of media to bring the total volume to 100 μL. The next day the media was removed and the infected monolayer was fixed with cold methanol, and Immediate Early proteins were detected by immunofluorescence assays to quantify the number of cells that were infected with HCMV. IE gene expression was quantified within five random fields within each well and corresponding numbers were utilized to determine viral replication. Results from each well were normalized to the vehicle control well so as to allow a percent reduction from no drug treatment to be calculated. Results were plotted using either Prism Software or CDD Vault in order to calculate IC50s.

| SMILES | IC50 |
| --- | --- |
| COc1ccccc1C(C)CCNc1cccc2ccccc12 (stereo not drawn) [Example 40] | 2.83 ± 0.28 µM |
| CCC(CCNc1cccc2cccnc12)c1ccccc1OC (stereo not drawn) [Example 32] | 2.25 ± 0.33 µM |
| CC(CC(=O)Nc1cnc2ccccc2c1)c1ccccc1Cl (stereo not drawn) [Example 6] | 21.1 ± 14.5 µM |
| COc1ccc(C(C)CC(=O)Nc2cnc3ccccc3c2)cc1 (stereo not drawn) [Example 2] | > 50 µM |
| CC(CNc1cccc2nccnc12)c1ccccc1Cl (stereo not drawn) [Example FLS-117] | 3.2 µM |
| CC(CCOc1cccc2cccnc12)c1ccccc1Cl (stereo not drawn) [Example 52] | 1.98 ± 0.68 µM |
| CC(CC(=O)Nc1cccc2cccnc12)c1ccccc1 (stereo not drawn) [Example 49] | > 50 µM |
| COc1cccc(C(C)CCNc2cccc3cccnc23)c1 (stereo not drawn) [Example 17] | 2.69 ± 0.94 µM |
| COc1ccccc1C(C)CC(=O)Nc1cccc2[nH]ccc12 (stereo not drawn) [Example 43] | 12.5 ± 4.14 µM |
| COc1ccccc1C(C)CC(=O)Nc1ccccc1 (stereo not drawn) [Example 45] | > 50 µM |
| COc1ccccc1C(C)C(C)CNc1cccc2cccnc12 (stereo not drawn) [Example 28] | 2.89 ± 0.95 µM |
| COc1ccccc1C(C)CC(=O)Nc1cccc2ccccc12 (stereo not drawn) [Example 41] | 29.2 ± 17.8 µM |
| CC(CC(=O)Nc1cnc2ccccc2c1)c1ccccc1 (stereo not drawn) [Example 8] | 3.03 ± 0.69 µM |
| CC(CCNc1cnc2ccccc2c1)c1ccccc1 (stereo not drawn) [Example 7] | > 50 µM |
| COc1ccccc1C(C)C(O)CNc1cccc2cccnc12 (stereo not drawn) [Example 27] | 28.5 ± 2.68 µM |
| CC(CNc1cccc2[nH]ccc12)C(C)c1ccccc1Cl (stereo not drawn) [Example FLS-116] | 3.5 µM |
| CC(CCNc1ccc(Br)c2cccnc12)c1ccccc1Cl (stereo not drawn) [FH000006-K-6] | 7.9 µM |
| COc1ccccc1C(C)C(F)C(=O)Nc1cccc2cccnc12 (stereo not drawn) [Example 26] | 5.38 ± 3.93 µM |
| COc1ccc(Br)cc1C(C)CC(=O)Nc1cccc2cccnc12 (stereo not drawn) [Example 47] | 5.88 ± 1.93 µM |
| COc1ccccc1C(C)CCNc1cccc2nccnc12 (stereo not drawn) [Example 38] | 3.61 ± 0.54 µM |
| COc1ccc(C(C)CCNc2cnc3ccccc3c2)cc1 (stereo not drawn) [Example 1] | 25 to 50 µM |

| SMILES | IC50 |
| --- | --- |
| CC(CCNc1ccc(Br)c2cccnc12)c1ccccc1 (stereo not drawn) [Example 53] | 11.6 ± 0.36 µM |
| COc1ccccc1C(C)CC(=O)Nc1cccc2nccnc12 (stereo not drawn) [Example 39] | > 50 µM |
| COc1cccc(C(C)CCNc2cnc3ccccc3c2)c1 (stereo not drawn) [Example 3] | 25 to 50 µM |
| COc1ccc(C(C)CC(=O)Nc2cccc3cccnc23)cc1 (stereo not drawn) [Example 16] | 26.9 ± 11.5 µM |
| CC(CCNc1cnc2ccccc2c1)c1ccccc1Cl (stereo not drawn) [Example 5] | 18.6 ± 4.62 µM |
| CC(CCNc1cccc2cccnc12)c1ccccn1 (stereo not drawn) [Example 34] | > 50 µM |
| CCC(CC(=O)Nc1cccc2cccnc12)c1ccccc1OC (stereo not drawn) [Example 33] | 5.3 ± 0.31 µM |
| CC(CCNc1cccc2cccnc12)c1ccccc1Br (stereo not drawn) [Example 50] | 2.92 ± 1.26 µM |
| CC(CCNc1cccc2cccnc12)c1ccccc1 (stereo not drawn) [Example 48] | > 50 µM |
| CC(CNc1cccc2[nH]ccc12)c1ccccc1Cl (stereo not drawn) [Example FLS-120] | 5 µM |
| COc1ccccc1C(C)CC(=O)n1ccc2ccccc21 (stereo not drawn) [Example 37] | > 50 µM |
| COc1ccc(C(C)CC(=O)Nc2ccc3ncccc3c2)cc1 (stereo not drawn) [Example 10] | 5.82 ± 1.98 µM |
| COc1cccc(C(C)CCNc2ccc3ncccc3c2)c1 (stereo not drawn) [Example 11] | 5.75 ± 2.47 µM |
| CC(CC(=O)Nc1cccc2cccnc12)c1ccccn1 (stereo not drawn) [Example 35] | > 50 µM |
| CC(CNc1cccc2nccnc12)C(C)c1cc(Cl)ccc1Cl (stereo not drawn) [Example FLS-114] | 6.4 µM |
| COc1ccccc1C(C)CCNc1cccc2[nH]ccc12 (stereo not drawn) [Example 42] | 1.32 ± 0.84 µM |
| COc1ccccc1C(C)CCNc1cccc2cccnc12 (stereo not drawn) [Example 19] | 1.28 ± 0.16 µM |
| COc1ccccc1C(C)CCNc1ccccc1 (stereo not drawn) [Example 44] | > 50 µM |
| COc1ccccc1C(C)C(F)CNc1cccc2cccnc12 (stereo not drawn) [Example 25] | 3.73 ± 0.46 µM |
| CC(CCNc1cccc2cccnc12)c1ccccc1Cl (stereo not drawn) [Example 21] | 1.2 ± 0.52 µM |
| Cc1ccccc1C(C)CC(=O)Nc1cccc2cccnc12 (stereo not drawn) [Example 24] | > 50 µM |

| SMILES | IC50 |
| --- | --- |
| CC(CCNc1cccc2cccnc12)c1c(Cl)cccc1Cl (stereo not drawn) [Example 51] | 1.94 ± 0.51 µM |
| COc1ccccc1C(C)CCNc1ccc2ncccc2c1 (stereo not drawn) [Example 13] | 23.4 ± 0.6 µM |
| COc1ccc(Br)cc1C(C)CCNc1cccc2cccnc12 (stereo not drawn) [Example 46] | 21.7 ± 2.48 µM |
| COc1cccc(C(C)CC(=O)Nc2cnc3ccccc3c2)c1 (stereo not drawn) [Example 4] | 21.2 ± 14.5 µM |
| CC(CC(=O)Nc1cccc2cccnc12)c1ccccc1Cl (stereo not drawn) [Example 22] | 1.28 ± 1.82 µM |
| COc1ccccc1CCCNc1cccc2cccnc12 [Example 30] | 12.1 ± 8.44 µM |
| COc1ccccc1C(C)CC(=O)Nc1cccc2cccnc12 (stereo not drawn) [Example 20] | 19.7 ± 14.7 µM |
| CC(CNc1cccc2nccnc12)C(C)c1ccc(Cl)cc1Cl (stereo not drawn) [Example DV7016] | 23.1 µM |
| COc1ccccc1C(C)CC(=O)Nc1ccc2ncccc2c1 (stereo not drawn) [Example 14] | 2.2 ± 1.32 µM |
| COc1ccccc1CCC(=O)Nc1cccc2cccnc12 [Example 31] | > 50 µM |
| COc1cccc(C(C)CC(=O)Nc2cccc3cccnc23)c1 (stereo not drawn) [Example 18] | > 50 µM |
| COc1ccc(C(C)CCNc2ccc3ncccc3c2)cc1 (stereo not drawn) [Example 9] | 2.41 ± 0.04 µM |
| CC(CCCNc1cccc2cccnc12)c1ccccc1Cl (stereo not drawn) [FH000006-K-8] | 6.3 µM |
| COc1cccc(C(C)CC(=O)Nc2ccc3ncccc3c2)c1 (stereo not drawn) [Example 12] | 3.34 ± 1.45 µM |
| CC(CCC(=O)Nc1cccc2cccnc12)c1ccccc1Cl (stereo not drawn) [FH000006-K-8-A] | 4.5 µM |
| COc1ccccc1C(C)CCn1ccc2ccccc21 (stereo not drawn) [Example 36] | > 50 µM |
| CC(CNc1cccc2nccnc12)c1cc(Cl)ccc1Cl (stereo not drawn) [Example FLS-118] | 3.2 µM |
| CC(CNc1cccc2nccnc12)c1cc(Cl)cc(Cl)c1 (stereo not drawn) [Example FLS-119] | 2.7 µM |
| Cc1ccccc1C(C)CCNc1cccc2cccnc12 (stereo not drawn) [Example 23] | 2.01 ± 0.71 µM |
| COc1ccccc1C(C)C(C)C(=O)Nc1cccc2cccnc12 (stereo not drawn) [Example 29] | 11.5 ± 7.71 µM |
| COc1ccc(C(C)CCNc2cccc3cccnc23)cc1 (stereo not drawn) [Example 15] | 3.27 ± 0.41 µM |
